Experimental findings from patent US9018388B2, “Pesticidal compositions and processes related thereto” (Dow AgroSciences LLC, priority 2012, dated 2015) are described below.

Holding throughout (assay type): in vivo
For assay [1], the system named is Beet Armyworm (BAW) (Spodoptera exigua). Description: Bioassay on beet armyworm (BAW), 128-well diet tray assay. The settings on record: Beet armyworm, 50 μg/cm^2; for pest or weed control at 50 µg/cm2, 50 µg/cm2: Spodoptera exigua, read-out: % Mortality BAW 50 μg/cm^2. The procedure, abridged: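 Second-instar Spodoptera exigua larvae, one to five per well, on artificial diet treated with 50 μg/cm^2 compound in 90:10 acetone-water and dried, eight wells per compound. Held at 25 °C, 14:10 light-dark for five to seven days; percent mortality averaged over wells.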

Assay [2] deals with Corn Earworm (CEW) (Helicoverpa zea). Description: Bioassay on corn earworm (CEW), 128-well diet tray assay. The note with it: Corn earworm, 50 μg/cm^2; for pest or weed control at 50 µg/cm2, 50 µg/cm2: Helicoverpa zea, read-out: % Mortality CEW 50 μg/cm^2. The procedure, abridged:
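Second-instar Helicoverpa zea larvae (one to five per well) placed on artificial diet treated with 50 μg/cm^2 compound in 90:10 acetone-water, dried, eight wells per compound. Held at 25 °C, 14:10 light-dark, five to seven days; percent mortality averaged over wells.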

Assay [3] deals with Green Peach Aphid (GPA) (Myzus persicae). Description: Bioassay on green peach aphid (GPA), foliar spray on cabbage seedlings. The note with it: 72 h, read-out: % Mortality GPA 200 ppm. On the procedure: Bioassays on Green Peach Aphid (“GPA”) (Myzus persicae)
Certain molecules disclosed in this document were tested against GPA using procedures described in the following example. In the reporting of the results, the “GPA Rating Table” was used (See Table Section).
Cabbage seedlings grown in 3-inch pots, with 2-3 small (3-5 cm) true leaves, were used as test substrate. The seedlings were infested with 20-50 GPA (wingless adult and nymph stages) one day prior to chemical application. Four pots with individual seedlings were used for each treatment. Test compounds (2 mg) were dissolved in 2 mL of acetone/methanol (1:1) solvent, forming stock solutions of 1000 ppm test compound. The stock solutions were diluted 5× with 0.025% Tween 20 in H2O to obtain the solution at 200 ppm test compound. A hand-held aspirator-type sprayer was used for spraying a solution to both sides of […] leaves until runoff. Reference plants (solvent check) were sprayed with the diluent only containing 20% by volume of acetone/methanol (1:1) solvent. Treated plants were held in a holding room for three days at approximately 25° C. and ambient relative humidity (RH) prior to grading. Evaluation was conducted by counting the number of live aphids per plant under a microscope. Percent Control was measured by using Abbott's correction formula (W. S. Abbott, “A Method of Computing the Effectiveness of an Insecticide” J. Econ. Entomol. 18 (1925), pp. 265-267) as follows. Corrected%Control=100*(X−Y)/X • where • X=No. of live aphids on solvent check plants and • Y=No. of live aphids on treated plants
The results are indicated in the table entitled “Table 5: Biological Results” (See Table Section).

As for `Cc1cccc(C)c1/N=C(/N/N=C/c1ccc(-c2ncn(-c3ccc(OC(F)(F)F)cc3)n2)cc1)SCOC(=O)C1CCCC1` [Compound 35C], the pest or weed control at 50 µg/cm2, 50 µg/cm2 in assay [1] and in assay [2] was 50 to 100% each time. Further, the pest or weed control at 200 ppm in assay [3] lay in the range of 0 to 80%.
For `COc1cc(C)c(/N=C(/N/N=C/c2ccc(-c3ncn(-c4ccc(OC(F)(F)F)cc4)n3)cc2)SCOC(=O)C(C)(C)C)c(C)c1` [Compound 40C], the pest or weed control at 50 µg/cm2, 50 µg/cm2 in assay [1] and in assay [2] was 50 to 100% in each case. Besides, the pest or weed control at 200 ppm in assay [3] lay in the range of 0 to 80%.
As for `COc1cc(C)c(/N=C(/N/N=C/c2ccc(-c3ncn(-c4ccc(OC(F)(F)F)cc4)n3)cc2)SCOC(=O)C2CCCC2)c(C)c1` [Compound 43C], the pest or weed control at 50 µg/cm2, 50 µg/cm2 in assay [1] and in assay [2] was 50 to 100% each time. Besides, the pest or weed control at 200 ppm in assay [3] lay within 0 to 80%.
Take `Cc1cccc(C)c1/N=C(/N/N=C/c1ccc(-c2ncn(-c3ccc(OC(F)(F)F)cc3)n2)cc1)SCC(=O)O` [Compound 47C]: the pest or weed control at 50 µg/cm2, 50 µg/cm2 in assay [1] and in assay [2] was 50 to 100% throughout. Moreover, in assay [3], the pest or weed control at 200 ppm was in the range of 0 to 80%.
For `Cc1cccc(C)c1/N=C(/N/N=C/c1ccc(-c2ncn(-c3ccc(OC(F)(F)C(F)(F)F)cc3)n2)cc1)SCC(=O)O` [Compound 49C], the pest or weed control at 50 µg/cm2, 50 µg/cm2 in assay [1] and in assay [2] was 50 to 100% in each case. Besides, in assay [3], the pest or weed control at 200 ppm was 0 to 80%.
`Cc1cccc(C)c1/N=C(/N/N=C/c1ccc(-c2ncn(-c3ccc(OC(F)(F)F)cc3)n2)cc1)SCC(=O)N1CCN(C(=O)OC(C)(C)C)CC1` [Compound 57C]: the pest or weed control at 50 µg/cm2, 50 µg/cm2 in assay [1] and in assay [2] was 50 to 100% each time. In assay [3], the pest or weed control at 200 ppm is 0 to 80%.
As to `Cc1cccc(C)c1/N=C(/N/N=C/c1ccc(-c2ncn(-c3ccc(OC(F)(F)F)cc3)n2)cc1)SCC(=O)NCCCNC(=O)OC(C)(C)C` [Compound 58C], the pest or weed control at 50 µg/cm2, 50 µg/cm2 in assay [1] and in assay [2] was 50 to 100% in each case. The pest or weed control at 200 ppm in assay [3] lay within 0 to 80%.
For the molecule `Cc1cccc(C)c1/N=C(/N/N=C/c1ccc(-c2ncn(-c3ccc(OC(F)(F)F)cc3)n2)cc1)SCC(=O)NCC(NC(=O)OC(C)(C)C)C(=O)O` (stereo not drawn) [Compound 59C], the pest or weed control at 50 µg/cm2, 50 µg/cm2 in assay [1] and in assay [2] was 50 to 100% in each case. In assay [3], the pest or weed control at 200 ppm lay in the range of 0 to 80%.
As to `Cc1cccc(C)c1/N=C(/N/N=C/c1ccc(-c2ncn(-c3ccc(OC(F)(F)F)cc3)n2)cc1)SCC(=O)NC[C@@H]1CCCNC1` [Compound 62C, (1Z,2E)-2-oxo-2-(((R)-piperidin-3-ylmethyl)amino)ethyl N-(2,6-dimethylphenyl)-2-(4-(1-(4-(trifluoromethoxy)phenyl)-1H-1,2,4-triazol-3-yl)benzylidene)hydrazinecarbimidothioate trifluoroacetic acid], the pest or weed control at 50 µg/cm2, 50 µg/cm2 in assay [1] and in assay [2] was 50 to 100% in each case. Besides, the pest or weed control at 200 ppm in assay [3] lay within 0 to 80%.
As to `COc1cc(C)c(/N=C(/N/N=C/c2ccc(-c3ncn(-c4ccc(OC(F)(F)F)cc4)n3)cc2)SCC(=O)N2CCNCC2)c(C)c1` [Compound 65C], the pest or weed control at 50 µg/cm2, 50 µg/cm2 in assay [1] and in assay [2] was 50 to 100% in each case. Further, the pest or weed control at 200 ppm in assay [3] lay within 0 to 80%.
For `Cc1cccc(C)c1/N=C(/N/N=C/c1ccc(-c2ncn(-c3ccc(OC(F)(F)F)cc3)n2)cc1)SCC(=O)NCCCN` [Compound 66C], the pest or weed control at 50 µg/cm2, 50 µg/cm2 in assay [1] and in assay [2] was 50 to 100% in each case. For the same molecule, in assay [3], the pest or weed control at 200 ppm was in the range of 0 to 80%.
Turning to `COc1cc(C)c(/N=C(/N/N=C/c2ccc(-c3ncn(-c4ccc(OC(F)(F)F)cc4)n3)cc2)SCC(=O)O)c(C)c1.[Na+]` [Compound 68C, 2-(((Z)-((4-methoxy-2,6-dimethylphenyl)imino)((E)-2-(4-(1-(4-(trifluoromethoxy)phenyl)-1H-1,2,4-triazol-3-yl)benzylidene)hydrazinyl)methyl)-thio)acetic acid sodium salt], in assay [1], the “% Mortality BAW 50 μg/cm^2” value is recorded as “A (50-100)”. Besides, the “% Mortality CEW 50 μg/cm^2” value in assay [2] was “A (50-100)”. Also, the pest or weed control at 200 ppm in assay [3] fell in the range of 0 to 80%.
As for `Cc1cccc(C)c1N1C(=O)CS/C1=N\N=C\c1ccc(-c2ncn(-c3ccc(OC(F)(F)F)cc3)n2)cc1` [Compound 72C], the “% Mortality BAW 50 μg/cm^2” value in assay [1] is “A (50-100)”. Moreover, in assay [2], the “% Mortality CEW 50 μg/cm^2” value is given as “A (50-100)”. Moreover, the pest or weed control at 200 ppm in assay [3] lay in the range of 0 to 80%.
Take `CC(C)c1ccccc1N1C(=O)CS/C1=N\N=C\c1ccc(-c2ncn(-c3ccc(OC(F)(F)F)cc3)n2)cc1` [Compound 73C]: the pest or weed control at 50 µg/cm2, 50 µg/cm2 in assay [1] and in assay [2] was 50 to 100% throughout. In addition, the pest or weed control at 200 ppm in assay [3] was 0 to 80%.
For `Cc1cccc(C)c1-n1c(-c2nccs2)cs/c1=N\N=C\c1ccc(-c2ncn(-c3ccc(OC(F)(F)F)cc3)n2)cc1` [Compound 75C], the pest or weed control at 50 µg/cm2, 50 µg/cm2 in assay [1] and in assay [2] was 50 to 100% throughout. Further, in assay [3], the pest or weed control at 200 ppm was in the range of 0 to 80%.
Take `Cc1cccc(C)c1-n1c(-c2cc(-c3ccc(Cl)cc3)no2)cs/c1=N\N=C\c1ccc(-c2ncn(-c3ccc(OC(F)(F)F)cc3)n2)cc1` [Compound 76C]: the pest or weed control at 50 µg/cm2, 50 µg/cm2 in assay [1] and in assay [2] was 50 to 100% throughout. Besides, in assay [3], the pest or weed control at 200 ppm lay in the range of 0 to 80%.
With `Cc1cccc(C)c1-n1c(-c2ccc(C(=O)O)cc2)cs/c1=N\N=C\c1ccc(-c2ncn(-c3ccc(OC(F)(F)F)cc3)n2)cc1` [Compound 77C], the pest or weed control at 50 µg/cm2, 50 µg/cm2 in assay [1] and in assay [2] was 50 to 100% in each case. The pest or weed control at 200 ppm in assay [3] lay within 0 to 80%.
As to `Cc1cccc(C)c1-n1c(-c2ccc(OC(F)(F)F)cc2)cs/c1=N\N=C\c1ccc(-c2ncn(-c3ccc(OC(F)(F)F)cc3)n2)cc1` [Compound 78C], the pest or weed control at 50 µg/cm2, 50 µg/cm2 in assay [1] and in assay [2] was 50 to 100% throughout. In addition, in assay [3], the pest or weed control at 200 ppm was in the range of 0 to 80%.
Take `Cc1cccc(C)c1-n1c(-c2ccc(C(F)(F)F)cc2)cs/c1=N\N=C\c1ccc(-c2ncn(-c3ccc(OC(F)(F)F)cc3)n2)cc1` [Compound 79C]: the pest or weed control at 50 µg/cm2, 50 µg/cm2 in assay [1] and in assay [2] was 50 to 100% throughout. Moreover, the pest or weed control at 200 ppm in assay [3] fell in the range of 0 to 80%.
For the molecule `CC1S/C(=N\N=C\c2ccc(-c3ncn(-c4ccc(OC(F)(F)F)cc4)n3)cc2)N(c2ccccc2C(C)C)C1=O` (stereo not drawn) [Compound 88C], the pest or weed control at 50 µg/cm2, 50 µg/cm2 in assay [1] and in assay [2] was 50 to 100% each time. In addition, the pest or weed control at 200 ppm in assay [3] fell in the range of 0 to 80%.
Turning to `COc1ccccc1N1C(=O)CS/C1=N\N=C\c1ccc(-c2ncn(-c3ccc(OC(F)(F)F)cc3)n2)cc1` [Compound 92C], the pest or weed control at 50 µg/cm2, 50 µg/cm2 in assay [1] and in assay [2] was 50 to 100% throughout. In addition, in assay [3], the pest or weed control at 200 ppm fell in the range of 0 to 80%.
In the case of `O=C1CS/C(=N\N=C\c2ccc(-c3ncn(-c4ccc(OC(F)(F)F)cc4)n3)cc2)N1c1c(F)cccc1Cl` [Compound 95C], the pest or weed control at 50 µg/cm2, 50 µg/cm2 in assay [1] and in assay [2] was 50 to 100% in each case. The pest or weed control at 200 ppm in assay [3] lay within 0 to 80%.
For the molecule `O=C1CS/C(=N\N=C\c2ccc(-c3ncn(-c4ccc(OC(F)(F)F)cc4)n3)cc2)N1c1ccccc1-c1ccccc1` [Compound 96C], the pest or weed control at 50 µg/cm2, 50 µg/cm2 in assay [1] and in assay [2] was 50 to 100% throughout. In addition, the pest or weed control at 200 ppm in assay [3] was in the range of 0 to 80%.
Turning to `CCc1cccc(C)c1N1C(=O)CS/C1=N\N=C\c1ccc(-c2ncn(-c3ccc(OC(F)(F)F)cc3)n2)cc1` [Compound 111C], the pest or weed control at 50 µg/cm2, 50 µg/cm2 in assay [1] and in assay [2] was 50 to 100% throughout. In addition, the pest or weed control at 200 ppm in assay [3] was in the range of 0 to 80%.
As to `O=C1CS/C(=N\N=C\c2ccc(-c3ncn(-c4ccc(OC(F)(F)F)cc4)n3)cc2)N1c1ccccc1C1CC1` [Compound 112C], the pest or weed control at 50 µg/cm2, 50 µg/cm2 in assay [1] and in assay [2] was 50 to 100% throughout. Also, the pest or weed control at 200 ppm in assay [3] lay in the range of 0 to 80%.
As for `CC(C)=Cc1ccccc1N1C(=O)CS/C1=N\N=C\c1ccc(-c2ncn(-c3ccc(OC(F)(F)F)cc3)n2)cc1` [Compound 121C], the pest or weed control at 50 µg/cm2, 50 µg/cm2 in assay [1] and in assay [2] was 50 to 100% in each case. The pest or weed control at 200 ppm in assay [3] was in the range of 0 to 80%.
